We go through 5 compounds from patent US4446151A, “Decarboxylase-inhibiting fluorinated pentane diamine derivatives” (Merrell Toraude et Compagnie, priority 1982, dated 1984).

This assay deals with T1, ornithine decarboxylase (ODC) (Rattus norvegicus, UniProt P09057).
T1 construct: is prepared from the livers of rats which have been injected with thioacetamide; from tissue; host or cells: liver of rats injected with thioacetamide (150 mg/kg, 18 h before sacrifice); purified about ten fold by acid treatment at pH 4.6
T1 sequence (P09057 1-461): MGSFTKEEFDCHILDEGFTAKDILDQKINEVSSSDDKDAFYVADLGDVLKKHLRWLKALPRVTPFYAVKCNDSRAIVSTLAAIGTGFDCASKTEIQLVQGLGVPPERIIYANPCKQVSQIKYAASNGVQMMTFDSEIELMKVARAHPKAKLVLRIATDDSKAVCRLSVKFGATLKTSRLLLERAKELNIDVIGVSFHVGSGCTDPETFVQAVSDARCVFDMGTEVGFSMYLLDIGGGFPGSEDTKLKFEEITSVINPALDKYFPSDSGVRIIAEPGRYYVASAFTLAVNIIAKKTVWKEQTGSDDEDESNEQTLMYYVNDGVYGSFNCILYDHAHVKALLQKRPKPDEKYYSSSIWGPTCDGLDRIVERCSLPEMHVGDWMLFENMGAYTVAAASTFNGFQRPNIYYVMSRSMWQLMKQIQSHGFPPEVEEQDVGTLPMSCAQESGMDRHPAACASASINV
Put plainly: in vitro inhibition (time-dependent inactivation) of ornithine decarboxylase (ODC) prepared from rat liver. In kind it is biochemical. The note with it: 37° C.; for .tau.50 (half-life, at infinite concentration of inhibitor): pH 7.1, Kitz and Wilson; for Half-life (t1/2) at 10 μM: inhibitor at 10 μM, pH 7.1. Here is the method:
At different times 50 μl aliquots are transferred into a 1 mL assay medium containing sodium phosphate (30 mM, pH 7.1), dithiothreitol (5 mM), pyridoxal phosphate (0.1 mM), L-ornithine (0.081 μmol), and DL-[1-^14 C]ornithine (0.043 μmol, 58 Ci/mol, Amersham) in a closed vessel in which a filter paper moistered with 50 μl hyamine hydroxide (1M) is fitted. The reaction is allowed to proceed for 60 min at 37° C. and then terminated by addition of 0.5 ml of 40% trichloroacetic acid. After an additional 30 min, the CO2 absorbed on the filter paper is counted in a standard scintillation cocktail.

Take `NCC(=O)CC(N)(CF)C(=O)O` (stereo not shown) [A, 2-fluoromethyl-2,5-diamino-4-oxo-pentanoic acid]: the “.tau.50 (half-life, at infinite concentration of inhibitor)” value is 3.1 min and the “Half-life (t1/2) at 10 μM” value was 4.5 min.

`C=C(CN)CC(N)CF` (stereo not shown) [B, 1-fluoro-2,5-diamino-4-methylene-pentane]: the “.tau.50 (half-life, at infinite concentration of inhibitor)” value worked out at 2.6 min and the “Half-life (t1/2) at 10 μM” value was determined as 6.4 min.

As to `NCC(=O)CC(N)CF` (stereo not shown) [C, 1-fluoro-2,5-diamino-4-oxo-pentane], the “.tau.50 (half-life, at infinite concentration of inhibitor)” value came to 1.6 min and the “Half-life (t1/2) at 10 μM” value was 2.8 min.

In the case of `C=C(CN)CC(N)(CF)C(=O)O` (stereo not shown) [D, 2-fluoromethyl-2,5-diamino-4-methylene-pentanoic acid], the “.tau.50 (half-life, at infinite concentration of inhibitor)” value was 3.6 min and the “Half-life (t1/2) at 10 μM” value amounted to 23 min.

As to `C=C(CN)CC(N)C(F)F` (stereo not shown) [E, 1,1-difluoro-2,5-diamino-4-methylene-pentane], the “.tau.50 (half-life, at infinite concentration of inhibitor)” value stood at 2.2 min and the “Half-life (t1/2) at 10 μM” value was 14 min.
